Test results as given in paper PMC9971056 (JHEP Reports, 2022).

System: HepG2 cells
Assay: LD50 in HepG2 cells
Format: cell-based, Human

Compound: CC1(C)CC[C@]2(C(=O)O)CC[C@]3(C)[C@H](C(=O)C=C4[C@@]5(C)C=C(C#N)C(=O)C(C)(C)[C@@H]5CC[C@]43C)[C@@H]2C1 [bardoxolone]
- LD50 in HepG2 cells: < 1 µM
